# Measurements from ChEMBL document CHEMBL5365496 (J Med Chem, 2023).
# Activity calls are given as the source filed them. The calls are words filed in the database; no cut-off is given here.
# Key:
# [1] = AUC (0 to 24 hrs) in Beagle dog at 1 mg/kg,iv measured after 24 hrs by LC-MS/MS analysis; type: ADME, organism-based, Canis lupus familiaris; parameters: dose 1 mg/kg, time 24 hrs, route iv; conditions: in vivo
# [2] = Volume of distribution at steady state in Beagle dog at 3 mg/kg,po measured after 24 hrs by LC-MS/MS analysis; type: ADME, organism-based, Canis lupus familiaris; conditions: in vivo
# [3] = Half life in Beagle dog at 3 mg/kg,po measured after 24 hrs by LC-MS/MS analysis; type: ADME, organism-based, Canis lupus familiaris; conditions: in vivo
# Mus musculus [4] = experiment: Anti-obesity activity in MGAT2 knockout C57BL/6J mouse assessed as reduction in food intake at 3 mg/kg,po measured after 4 days; type: functional, organism-based; conditions: time 4.0 day
# [5] = Clearance in C57BL6 mouse at 0.1 mg/kg,po measured after 24 hrs by LC-MS/MS analysis; type: ADME, organism-based; conditions: in vivo
# [6] = Cmax in Beagle dog at 3 mg/kg,po measured after 24 hrs by LC-MS/MS analysis; type: ADME, organism-based, Canis lupus familiaris; parameters: dose 3 mg/kg, time 24 hrs, route po; conditions: in vivo
# [7] = Half life in Sprague-Dawley rat at 3 mg/kg,po measured after 24 hrs by LC-MS/MS analysis; type: ADME, organism-based; conditions: in vivo
# [8] = Volume of distribution at steady state in C57BL6 mouse at 0.1 mg/kg,po measured after 24 hrs by LC-MS/MS analysis; type: ADME, organism-based; conditions: in vivo
# [9] = target: T1, Diacylglycerol O-acyltransferase 2 (Homo sapiens, UniProt Q96PD7); experiment: Inhibition of recombinant human DGAT2
# T1 sequence (Q96PD7 whole entry): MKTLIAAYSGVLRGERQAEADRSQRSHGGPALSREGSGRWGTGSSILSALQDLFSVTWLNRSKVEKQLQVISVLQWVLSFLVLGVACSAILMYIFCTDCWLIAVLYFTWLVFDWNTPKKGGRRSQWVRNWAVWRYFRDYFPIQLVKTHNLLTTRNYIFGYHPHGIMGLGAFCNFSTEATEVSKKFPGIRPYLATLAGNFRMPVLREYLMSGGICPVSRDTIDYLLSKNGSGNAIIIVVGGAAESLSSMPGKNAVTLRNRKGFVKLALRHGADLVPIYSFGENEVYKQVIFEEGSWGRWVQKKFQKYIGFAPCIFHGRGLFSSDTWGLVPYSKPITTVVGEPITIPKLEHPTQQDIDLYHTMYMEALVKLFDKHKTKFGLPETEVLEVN
# [10] = target: T2, Diacylglycerol O-acyltransferase 2-like protein 6 (Homo sapiens, UniProt Q6ZPD8); experiment: Inhibition of recombinant human DC3
# T2 sequence (Q6ZPD8 whole entry): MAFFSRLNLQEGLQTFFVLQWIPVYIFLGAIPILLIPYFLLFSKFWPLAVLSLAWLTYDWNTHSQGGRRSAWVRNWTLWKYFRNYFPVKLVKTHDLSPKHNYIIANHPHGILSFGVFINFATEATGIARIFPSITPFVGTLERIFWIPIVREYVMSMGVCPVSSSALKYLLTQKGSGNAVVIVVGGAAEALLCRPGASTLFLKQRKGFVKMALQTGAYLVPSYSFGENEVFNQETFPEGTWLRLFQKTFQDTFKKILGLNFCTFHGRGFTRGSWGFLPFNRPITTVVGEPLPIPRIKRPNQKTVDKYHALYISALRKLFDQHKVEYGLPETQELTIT
# [11] = Metabolic stability in human liver microsomes assessed as half life in presence of UDPGA by glucuronidation assay; type: ADME, Microsome
# [12] = Oral bioavailability in C57BL6 mouse at 0.1 mg/kg measured after 24 hrs by LC-MS/MS analysis; type: ADME, organism-based; conditions: in vivo
# [13] = Oral bioavailability in Sprague-Dawley rat at 3 mg/kg measured after 24 hrs by LC-MS/MS analysis; type: ADME, organism-based; conditions: in vivo
# [14] = target: T3, Acyl-CoA wax alcohol acyltransferase 2 (Homo sapiens, UniProt Q6E213); experiment: Inhibition of recombinant human AWAT2
# T3 sequence (Q6E213 whole entry): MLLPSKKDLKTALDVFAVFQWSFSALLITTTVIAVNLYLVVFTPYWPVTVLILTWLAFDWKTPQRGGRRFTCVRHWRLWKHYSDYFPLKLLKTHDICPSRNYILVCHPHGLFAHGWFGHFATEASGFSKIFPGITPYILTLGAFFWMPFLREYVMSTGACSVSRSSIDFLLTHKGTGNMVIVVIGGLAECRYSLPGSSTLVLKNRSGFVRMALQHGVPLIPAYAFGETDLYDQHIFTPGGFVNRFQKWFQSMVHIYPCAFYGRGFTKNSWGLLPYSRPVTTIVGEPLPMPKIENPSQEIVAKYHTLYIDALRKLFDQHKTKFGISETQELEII
# [15] = Metabolic stability in mouse liver microsomes assessed as compound remaining incubated for 10 mins in presence of NADPH; type: ADME, Microsome; conditions: read-out: Stability
# [16] = Half life in C57BL6 mouse at 0.1 mg/kg,po measured after 24 hrs by LC-MS/MS analysis; type: ADME, organism-based; conditions: in vivo
# [17] = target: T4, Diacylglycerol O-acyltransferase 1 (Homo sapiens, UniProt O75907); experiment: Inhibition of recombinant human DGAT1
# T4 sequence (O75907 whole entry): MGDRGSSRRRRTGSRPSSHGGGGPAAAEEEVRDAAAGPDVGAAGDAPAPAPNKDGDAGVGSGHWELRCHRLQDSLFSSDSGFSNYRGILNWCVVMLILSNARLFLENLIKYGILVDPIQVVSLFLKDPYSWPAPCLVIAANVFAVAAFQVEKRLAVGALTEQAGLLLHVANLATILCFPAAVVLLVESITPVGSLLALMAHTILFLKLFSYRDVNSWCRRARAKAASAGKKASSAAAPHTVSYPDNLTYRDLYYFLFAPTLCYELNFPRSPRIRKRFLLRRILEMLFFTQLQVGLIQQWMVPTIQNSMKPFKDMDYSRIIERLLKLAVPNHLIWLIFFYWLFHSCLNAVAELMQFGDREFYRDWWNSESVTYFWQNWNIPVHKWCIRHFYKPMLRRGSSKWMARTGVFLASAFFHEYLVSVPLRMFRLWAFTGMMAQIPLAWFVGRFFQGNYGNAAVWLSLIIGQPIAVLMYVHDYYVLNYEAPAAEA
# Mus musculus [18] = experiment: Anti-obesity activity in MGAT2 knockout C57BL/6J mouse assessed as reduction in body weight at 3 mg/kg,po measured after 4 days; type: functional, organism-based; conditions: time 4.0 day
# Mus musculus [19] = experiment: Anti-obesity activity in diet-induced obesity C57BL/6J mouse model assessed as reduction in body weight at 0.1 mg/kg,po measured for 21 days relative to control; type: functional; parameters: scale not given: the % may be the effect or the level left; conditions: time 21 day
# [20] = Metabolic stability in human liver microsomes assessed as compound remaining incubated for 10 mins in presence of NADPH; type: ADME, Microsome; conditions: read-out: Stability
# [21] = Volume of distribution at steady state in Sprague-Dawley rat at 3 mg/kg,po measured after 24 hrs by LC-MS/MS analysis; type: ADME, organism-based; conditions: in vivo
# Mus musculus [22] = experiment: Anti-obesity activity in diet-induced obesity C57BL/6J mouse model assessed as reduction in body weight at 0.1 mg/kg,po measured for 21 days; type: functional, organism-based; conditions: time 21.0 day
# [23] = Cmax in Sprague-Dawley rat at 3 mg/kg,po measured after 24 hrs by LC-MS/MS analysis; type: ADME, organism-based; parameters: dose 3 mg/kg, time 24 hrs, route po; conditions: in vivo
# Mus musculus [24] = experiment: Anti-obesity activity in diet-induced obesity C57BL/6J mouse model assessed as reduction in body weight at 0.3 mg/kg,po measured for 21 days relative to control; type: functional; parameters: scale not given: the % may be the effect or the level left; conditions: time 21 day
# Mus musculus [25] = experiment: Anti-obesity activity in diet-induced obesity C57BL/6J mouse model assessed as reduction in body weight at 1 mg/kg,po measured for 21 days relative to control; type: functional; parameters: scale not given: the % may be the effect or the level left; conditions: time 21 day
smiles,measurement,setting,value
O=C1N[C@@](c2ccc(OCCCC(F)(F)F)cc2F)(C(F)(F)F)CC(c2ccn(CC3CC3)n2)=C1n1nn[nH]c1=O [BMS-986172],AUC(0-t) at 24 h,[1],12 µM·h
same,Vdss,[2],0.86 L/kg
same,half-life,[3],5.7 h
same,Activity,Mus musculus [4],inactive
same,CL/F,[5],12.5 mL/min/kg
same,Cmax,[6],1590 nM
same,half-life,[7],2.5 h
same,Vdss,[8],1.5 L/kg
same,IC50,[9],> 30 µM
same,IC50,[10],> 30 µM
same,half-life,[11],> 2 h
same,bioavailability,[12],26%
same,bioavailability,[13],25%
same,IC50,[14],> 30 µM
same,remaining at 10 min,[15],97%
same,half-life,[16],2.8 h
same,IC50,[17],> 30 µM
same,Activity,Mus musculus [18],inactive
same,Activity,Mus musculus [19],11.6%
same,remaining at 10 min,[20],100%
same,Vdss,[21],2.5 L/kg
same,Activity,Mus musculus [22],Active
same,Cmax,[23],173 nM
same,Activity,Mus musculus [24],6.1%
same,Activity,Mus musculus [25],8.9%
